Laboratory results published in ChEMBL document CHEMBL1201861, “Genomics of Drug Sensitity in Cancer screening data, Wellcome Trust Sanger Institute”.

How the values were obtained:
Assay in all cases: cells
SK-OV-3 = assay type: functional, cell-based, Homo sapiens; conditions: Homo sapiens, SK-OV-3;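 note: growth inhibition of SK-OV-3 human cells, read out with a cell viability assay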
Description: SANGER: Inhibition of human SK-OV-3 cell growth in a cell viability assay.

DU-4475 = assay type: functional, cell-based; conditions: Homo sapiens
Description: SANGER: Inhibition of human DU-4475 cell growth in a cell viability assay.

EW-16 = assay type: functional, cell-based, Homo sapiens; conditions: Homo sapiens, EW-16;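 note: growth inhibition of human EW-16 cells, read out as cell viability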
Description: SANGER: Inhibition of human EW-16 cell growth in a cell viability assay.

D-392MG = assay type: functional, cell-based, Homo sapiens; conditions: Homo sapiens, D-392MG
RPMI-8866 = assay type: functional, cell-based; conditions: Homo sapiens
Description: SANGER: Inhibition of human RPMI-8866 cell growth in a cell viability assay.

A 172 = assay type: functional, cell-based, Homo sapiens; conditions: Homo sapiens, A 172;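 note: growth inhibition of A172 cells, measured with a cell viability readout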
Description: SANGER: Inhibition of human A172 cell growth in a cell viability assay.

639-V = assay type: functional, cell-based, Homo sapiens; conditions: Homo sapiens, 639-V;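 note: growth inhibition of 639-V cells, read out with a cell viability assay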
Description: SANGER: Inhibition of human 639-V cell growth in a cell viability assay.

Daoy = assay type: functional, cell-based, Homo sapiens; conditions: Homo sapiens, Daoy;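 note: daoy cell growth inhibition, read out as cell viability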
Description: SANGER: Inhibition of human Daoy cell growth in a cell viability assay.

LN-405 = assay type: functional, cell-based, Homo sapiens; conditions: Homo sapiens, LN-405
Description: SANGER: Inhibition of human LN-405 cell growth in a cell viability assay.

KYSE-520 cell line = assay type: functional, cell-based, Homo sapiens; conditions: Homo sapiens, KYSE-520;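 note: growth inhibition of human KYSE-520 cells, read out with a viability assay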
Description: SANGER: Inhibition of human KYSE-520 cell growth in a cell viability assay.

KOSC-2 = assay type: functional, cell-based, Homo sapiens; conditions: Homo sapiens, KOSC-2;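 note: growth inhibition of KOSC-2 cells, read out by a cell viability assay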
Description: SANGER: Inhibition of human KOSC-2 cell growth in a cell viability assay.

NCI-H1755 = assay type: functional, cell-based, Homo sapiens; conditions: Homo sapiens, NCI-H1755;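 note: cell viability readout used to measure growth inhibition of NCI-H1755 cells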
Description: SANGER: Inhibition of human NCI-H1755 cell growth in a cell viability assay.

SCC-25 = assay type: functional, cell-based, Homo sapiens; conditions: Homo sapiens, SCC-25;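 note: growth inhibition of SCC-25 cells, measured with a cell viability assay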
Description: SANGER: Inhibition of human SCC-25 cell growth in a cell viability assay.

HL-60 = assay type: functional, cell-based; conditions: Homo sapiens;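 note: growth inhibition of human HL-60 cells, read out with a cell viability assay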
Description: SANGER: Inhibition of human HL-60 cell growth in a cell viability assay.

SNU1 = assay type: functional, cell-based; conditions: Homo sapiens;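 note: growth inhibition of human NCI-SNU-1 cells, measured with a cell viability assay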
Description: SANGER: Inhibition of human NCI-SNU-1 cell growth in a cell viability assay.

UACC-62 = assay type: functional, cell-based, Homo sapiens; conditions: Homo sapiens, UACC-62;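 note: growth inhibition of human UACC-62 cells, read out by a cell viability assay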
Description: SANGER: Inhibition of human UACC-62 cell growth in a cell viability assay.

769-P = assay type: functional, cell-based, Homo sapiens; conditions: Homo sapiens, 769-P
Description: SANGER: Inhibition of human 769-P cell growth in a cell viability assay.

RO82-W-1 = assay type: functional, cell-based, Homo sapiens; conditions: Homo sapiens, RO82-W-1;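 note: growth inhibition of human RO82-W-1 cells, measured with a cell viability assay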
Description: SANGER: Inhibition of human RO82-W-1 cell growth in a cell viability assay.

CHL-1 = assay type: functional, cell-based, Homo sapiens; conditions: Homo sapiens, CHL-1;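 note: cell growth inhibition, read out with a cell viability assay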
Description: SANGER: Inhibition of human CHL-1 cell growth in a cell viability assay.

HuP-T3 = assay type: functional, cell-based, Homo sapiens; conditions: Homo sapiens, HuP-T3;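 note: HuP-T3 cell growth inhibition, read out with a cell viability assay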
Description: SANGER: Inhibition of human HuP-T3 cell growth in a cell viability assay.

HT-144 = assay type: functional, cell-based, Homo sapiens; conditions: Homo sapiens, HT-144
Description: SANGER: Inhibition of human HT-144 cell growth in a cell viability assay.

SNB-75 = assay type: functional, cell-based, Homo sapiens; conditions: Homo sapiens, SNB-75;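 note: cell viability assay measuring growth inhibition of human SNB-75 cells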
Description: SANGER: Inhibition of human SNB75 cell growth in a cell viability assay.

ONS-76 = assay type: functional, cell-based, Homo sapiens; conditions: Homo sapiens, ONS-76;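 note: growth inhibition of human ONS-76 cells, read out with a cell viability assay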
Description: SANGER: Inhibition of human ONS-76 cell growth in a cell viability assay.

HEL = assay type: functional, cell-based, Homo sapiens; conditions: Homo sapiens, HEL;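 note: growth inhibition of HEL cells, read out with a cell viability assay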
Description: SANGER: Inhibition of human HEL cell growth in a cell viability assay.

BB65-RCC = assay type: functional, cell-based, Homo sapiens; conditions: Homo sapiens, BB65-RCC;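 note: growth inhibition of the cell line, measured with a cell viability assay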
Description: SANGER: Inhibition of human BB65-RCC cell growth in a cell viability assay.

HCC1937 = assay type: functional, cell-based, Homo sapiens; conditions: Homo sapiens, HCC1937;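 note: growth inhibition measured with a cell viability read-out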
Description: SANGER: Inhibition of human HCC1937 cell growth in a cell viability assay.

UACC-257 = assay type: functional, cell-based, Homo sapiens; conditions: Homo sapiens, UACC-257
Description: SANGER: Inhibition of human UACC-257 cell growth in a cell viability assay.

A704 = assay type: functional, cell-based, Homo sapiens; conditions: Homo sapiens, A704;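 note: growth inhibition of human A704 cells, read out with a cell viability assay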
Description: SANGER: Inhibition of human A704 cell growth in a cell viability assay.

NCI-H1092 = assay type: functional, cell-based; conditions: Homo sapiens;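 note: cell growth inhibition measured with a cell viability assay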
Description: SANGER: Inhibition of human NCI-H1092 cell growth in a cell viability assay.

NCI-H1650 = assay type: functional, cell-based, Homo sapiens; conditions: Homo sapiens, NCI-H1650;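 note: growth inhibition of human NCI-H1650 cells measured by a cell viability assay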
Description: SANGER: Inhibition of human NCI-H1650 cell growth in a cell viability assay.

C32 = assay type: functional, cell-based, Homo sapiens; conditions: Homo sapiens, C32;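 note: cell viability assay, with IC50 reflecting inhibition of C32 cell growth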
Description: SANGER: Inhibition of human C32 cell growth in a cell viability assay.

LAN-6 = assay type: functional, cell-based, Homo sapiens; conditions: Homo sapiens, LAN-6;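 note: growth inhibition of LAN-6 cells, determined with a cell viability assay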
Description: SANGER: Inhibition of human LAN-6 cell growth in a cell viability assay.

ES1 = assay type: functional, cell-based, Homo sapiens; conditions: Homo sapiens, ES1;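 note: growth inhibition of ES1 cells, read out with a cell viability assay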
Description: SANGER: Inhibition of human ES1 cell growth in a cell viability assay.

ABC-1 = assay type: functional, cell-based, Homo sapiens; conditions: Homo sapiens, ABC-1;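 note: growth inhibition of human ABC-1 cells, read out by a cell viability assay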
Description: SANGER: Inhibition of human ABC-1 cell growth in a cell viability assay.

Panc1005 = assay type: functional, cell-based, Homo sapiens; conditions: Homo sapiens, Panc1005;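 note: growth inhibition of human PANC-10-05 cells, measured by a cell viability assay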
Description: SANGER: Inhibition of human PANC-10-05 cell growth in a cell viability assay.

D-263MG = assay type: functional, cell-based, Homo sapiens; conditions: Homo sapiens, D-263MG
Description: SANGER: Inhibition of human D-263MG cell growth in a cell viability assay.

S-117 = assay type: functional, cell-based, Homo sapiens; conditions: Homo sapiens, S-117
Description: SANGER: Inhibition of human S-117 cell growth in a cell viability assay.

CAS-1 = assay type: functional, cell-based, Homo sapiens; conditions: Homo sapiens, CAS-1;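 note: growth inhibition of CAS-1 cells, measured with a cell viability assay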
Description: SANGER: Inhibition of human CAS-1 cell growth in a cell viability assay.

BCPAP = assay type: functional, cell-based, Homo sapiens; conditions: Homo sapiens, BCPAP;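 note: growth inhibition of BCPAP cells, read out in a cell viability assay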
Description: SANGER: Inhibition of human BCPAP cell growth in a cell viability assay.

OE33 = assay type: functional, cell-based, Homo sapiens; conditions: Homo sapiens, OE33;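 note: growth inhibition of human OE33 cells, measured by a cell viability assay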
Description: SANGER: Inhibition of human OE33 cell growth in a cell viability assay.

SW1990 = assay type: functional, cell-based, Homo sapiens; conditions: Homo sapiens, SW1990;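 note: cell growth inhibition determined with a viability assay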
Description: SANGER: Inhibition of human SW1990 cell growth in a cell viability assay.

COLO-829 = assay type: functional, cell-based, Homo sapiens; conditions: Homo sapiens, COLO-829
Description: SANGER: Inhibition of human COLO-829 cell growth in a cell viability assay.

RH-1 = assay type: functional, cell-based, Homo sapiens; conditions: Homo sapiens, RH-1;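 note: growth inhibition of human RH-1 cells, read out with a cell viability assay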
Description: SANGER: Inhibition of human RH-1 cell growth in a cell viability assay.

DSH1 = assay type: functional, cell-based, Homo sapiens; conditions: Homo sapiens, DSH1;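 note: growth inhibition of human DSH1 cells, measured with a cell viability readout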
Description: SANGER: Inhibition of human DSH1 cell growth in a cell viability assay.

J-RT3-T3-5 = assay type: functional, cell-based; conditions: Homo sapiens;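 note: cell viability assay measuring growth inhibition of human J-RT3-T3-5 cells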
Description: SANGER: Inhibition of human J-RT3-T3-5 cell growth in a cell viability assay.

MHH-ES-1 = assay type: functional, cell-based, Homo sapiens; conditions: Homo sapiens, MHH-ES-1;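 note: cell growth inhibition measured by a cell viability assay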
Description: SANGER: Inhibition of human MHH-ES-1 cell growth in a cell viability assay.

JVM-2 = assay type: functional, cell-based; conditions: Homo sapiens;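 note: growth inhibition of JVM-2 cells determined by a cell viability assay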
Description: SANGER: Inhibition of human JVM-2 cell growth in a cell viability assay.

IST-MEL1 = assay type: functional, cell-based, Homo sapiens; conditions: Homo sapiens, IST-MEL1;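 note: growth inhibition of the cell line, read out with a cell viability assay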
Description: SANGER: Inhibition of human IST-MEL1 cell growth in a cell viability assay.

NCI-H727 = assay type: functional, cell-based, Homo sapiens; conditions: Homo sapiens, NCI-H727;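 note: growth inhibition of human NCI-H727 cells, read out with a cell viability assay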
Description: SANGER: Inhibition of human NCI-H727 cell growth in a cell viability assay.

T98G = assay type: functional, cell-based, Homo sapiens; conditions: Homo sapiens, T98G;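 note: growth inhibition of T98G cells, read out by a cell viability assay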
Description: SANGER: Inhibition of human T98G cell growth in a cell viability assay.

SK-MEL-24 = assay type: functional, cell-based; conditions: Homo sapiens;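 note: growth inhibition read out by a cell viability assay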
Description: SANGER: Inhibition of human SK-MEL-24 cell growth in a cell viability assay.

Measured: IC50

CN(c1ncccc1CNc1nc(Nc2ccc3c(c2)CC(=O)N3)ncc1C(F)(F)F)S(C)(=O)=O [PF-00562271]
1.8 µM: MHH-ES-1
2.25 µM: ABC-1
2.15 µM: DU-4475
1.01 µM: BCPAP
2.04 µM: EW-16
0.752 µM: COLO-829
> 2.56 µM: all other assays above

Cn1cncc1[C@@](N)(c1ccc(Cl)cc1)c1ccc2c(c1)c(-c1cccc(Cl)c1)cc(=O)n2C [TIPIFARNIB]
5.91 µM: SCC-25
1.47 µM: ONS-76
0.874 µM: NCI-H727
8.53 µM: DSH1
1.32 µM: BCPAP | J-RT3-T3-5
9.02 µM: SNB-75 | HCC1937
1.71 µM: SK-MEL-24
9.59 µM: S-117
0.0575 µM: Daoy
5.27 µM: MHH-ES-1
5.05 µM: Panc1005
10.1 µM: A 172
2.82 µM: IST-MEL1
12.6 µM: OE33 | COLO-829
0.805 µM: CHL-1
14.1 µM: LAN-6
6.93 µM: HL-60
3.21 µM: ABC-1
2.19 µM: DU-4475
4.19 µM: 769-P
2.75 µM: RH-1
3.59 µM: EW-16
12.4 µM: SW1990
1.96 µM: ES1
2.64 µM: BB65-RCC
1.19 µM: 639-V
2.49 µM: SK-OV-3
0.394 µM: HEL
1.45 µM: HT-144
11.8 µM: T98G
> 16 µM: all other assays above

O=c1cc(-c2cccc3c2Sc2ccccc2S3)oc(N2CCOCC2)c1 [KU-55933]
not listed: JVM-2
> 10 µM: all other assays above
